Results published in publication PMC11589101, “Profiling the endocrine-disrupting properties of triazines, triazoles, and short-chain PFAS” (Toxicological Sciences, 2024).

Tests used:
[1] = target: T1, human transthyretin (TTR) (Homo sapiens, UniProt P02766); test: FITC-T4 TTR-binding assay, screening method
Experimental: (§1) All incubations were performed at room temperature.
In the screening tests, 48 μl of Tris-HCl buffer (pH 8.0) was added to each well of black low-binding 96-well plates. Two microliters of each test compound dissolved in their respective solvent was added to each well and the plate was shaken at 600 rpm for 5 min. […] Fluorescence was measured again to check for possible autofluorescence or quenching by the test compound.
(§2) Fluorescence enhancement was determined for each well by subtracting its relative fluorescence units (RFU) before TTR addition from its RFUs after TTR addition. The resulting values were normalized to percentages of the vehicle control. A concentration–response curve was fitted through the data using the same model as in the reporter gene assays.

GH3.TRE cells = test: Resazurine cell viability assay in GH3.TRE cells
Experimental: Exposure medium was added to the cells immediately after seeding. […] Exposure conditions, resazurine assay, and luciferase measurements were similar as described for the VM7Luc4E2 cells.

[2] = system: AR-Ecoscreen-GR-KO M1 cells; test: Resazurine cell viability assay in AR-Ecoscreen-GR-KO M1 cells; conditions: 24 h
Experimental: The cell culture medium was discarded and replaced with 100 μl of fresh assay medium. […] Exposure conditions (24 h; 37 °C; 5% CO2), resazurine assay, and luciferase measurements were similar to described for the VM7Luc4E2 cells.

[3] = target: T1, human transthyretin (TTR); test: FITC-T4 TTR-binding assay, initial (original) method; conditions: for IC10 competing with FITC-T4 for binding to TTR: initial method, 110 nM FITC-T4, 30 nM TTR
Experimental: as §1, §2
After 15 min of incubation, fluorescence was measured and fluorescence enhancement was calculated by subtracting RFU without TTR from RFU with TTR. Further data analysis was similar to the screening assays.

VM7Luc4E2 cells = test: Resazurine cell viability assay in VM7Luc4E2 cells; format: cell-based, human; conditions: 24 h
[4] = system: steroidogenesis in H295R cells; format: cell-based, human; conditions: 48 h; for effect on steroid hormone levels compared with vehicle-treated controls / increased levels of 17α-OH-progesterone compared with vehicle-treated controls: highest noncytotoxic exposure concentration; for increased levels of progesterone and 17α-OH-progesterone compared with vehicle-treated controls: H295R
Experimental: (§3) All experiments were performed using cells in passages 5 to 10. First, the highest noncytotoxic concentration (<10% decrease in viability) was determined for each compound with MTT assays. Next, the levels of 13 steroid hormones were determined in the medium after exposure of the H295R cells to the highest noncytotoxic concentration using LC-MS/MS. These concentrations were tested in triplicate (n = 3) in 3 independent experiments (N = 3), and all 9 samples were measured in LC-MS/MS. […] These dilution series were tested in 3 independent experiments (N = 3), with triplicate exposures in each of these experiments (n = 3). Supernatants of the triplicate exposures per experiment were pooled after the 48 h of exposure and the 3 pooled samples were measured with LC-MS/MS. This was done to keep the number of LC-MS/MS measurements manageable.
The exposure medium was prepared by diluting stock solutions 1,000× in the cell culture medium to obtain a final concentration of 0.1% of the solvent. Exposure was started by replacing cell culture medium with the exposure medium. […] On a separate quality control plate, cells were exposed to 10 μM forskolin (Sigma-Aldrich) and 1 μM prochloraz (Sigma-Aldrich) to serve as positive control for increased and decreased steroid hormone secretion, respectively. Exposure was started by replacing the culture medium in the cell culture plates with the exposure medium.
(§4) After 48 h of exposure, the supernatant medium from each well was transferred to the wells of a clean 48-well plate, and that plate was stored at −80 °C for later steroid measurement. MTT assays were performed by adding 500 μl of 0.5 mg/ml MTT (3-(4,5-dimethylthiazol-2-yl)-2,5-diphenyltetrazolium bromide; Sigma-Aldrich) solution in medium to each well of the 24-well cell culture plate and incubating for 1 h at 37 °C with 5% CO2. After incubation, the MTT solution was discarded and 500 μl of DMSO was added to each well to lyse the cells and dissolve the formazan crystals. Plates were shaken at 700 rpm for 10 min and absorbance was measured at 560 nm wavelength.
Hormones were concentrated from supernatants by solid phase extraction using Bond Elut Plexa cartridges, 30 mg sorbent, 1.8 ml (Agilent Technologies, Santa Clara, CA, United States). The cartridges were conditioned with 1 ml of 0.5% formic acid in methanol, and subsequent addition of 1 ml of 0.5% formic acid in water. A mix of 100 μl of H295R medium sample in 1 ml of 2% formic acid in water and 50 μl of isotopically labeled internal standards mix (Table S1) was loaded on the cartridges. These were then washed with 1 ml of water followed by 1 ml of water–methanol mixture (70:30, v/v). Cartridges were dried by vacuum and the hormones were eluted with 700 μl of methanol into 96-well-deep well polypropylene plates. Eluates were evaporated to dryness during approximately 2 h in a refrigerated CentriVap vacuum concentrator and reconstituted in 150 μl of water–methanol mixture (1:1, v/v). Additionally, a serial 12-point dilution series of a mix of native steroid hormones was prepared to fit a calibration curve in order to quantify steroid concentrations.
The steroid hormones were separated prior to MS measurements on a Kinetex C18 LC Column (2.6 μm, 100 × 2.1 mm; Phenomenex, CA, United States) coupled to an Exion LC system (SCIEX, Framingham, MA, United States). The mobile phase consisted of 0.2 mM NH4F in water and pure methanol and was delivered at a flow rate of 0.6 ml/min in a gradient elution mode. The injection volume was 10 μl.
The LC-MS/MS raw data were processed using AB Sciex OS Analyst version 1.6.2 (SCIEX, Framingham, MA, United States) to calculate fold changes by dividing the measured hormone concentrations by the hormone concentrations in the vehicle controls. The fold changes were used to fit a concentration–response curve in GraphPad Prism using the same model as in the reporter gene assays, and the ECIR1.5 was estimated for each compound.

H295R cells = test: MTT cell viability assay in H295R cells; format: cell-based, human; conditions: 48 h; for highest exposure concentration with <10% decrease in cell viability: H295R cells; for decrease in cell viability at highest exposure concentration: 25 μM
Experimental: as §3, with “For the H295R assay, the culturing and exposure of cells were performed according to OECD Test Guideline No. 456 ([OECD 2011]). All” for “All”
as §4, with “wavelength. Concentrations causing >10% decrease in cell viability were excluded from the hormone analysis, and test compounds were retested at a lower concentration.” for “wavelength.”

[5] = system: thyroid hormone receptor (TR); test: TR-Luc reporter gene assay, antagonism (coexposure with 110 pM T3); format: cell-based; conditions: for TR antagonism % max combined: coexposure with 110 pM T3; for IC50 / TR antagonism IC10: GH3.TRE cells, coexposed with 110 pM T3, 24 h

SMILES | cytotoxicity (GH3.TRE cells; 100 μM) | cytotoxicity in the resazurine assay ([2]; 100 μM) | effect on steroid hormone levels compared with vehicle-treated controls [4] | highest exposure concentration with <10% decrease in cell viability (H295R cells) | TR antagonism % max combined ([5]; 0.3 uM) | TR antagonism % max combined ([5]; 1 uM) | TR antagonism % max combined ([5]; 3 uM) | TR antagonism % max combined ([5]; 10 uM) | IC50 [5] | TR antagonism IC10 [5] | increased levels of 17α-OH-progesterone compared with vehicle-treated controls [4] | cytotoxicity (GH3.TRE cells; rat, 24 h, 100 μM) | increased levels of progesterone and 17α-OH-progesterone compared with vehicle-treated controls [4] | further results
CC(C)(C)C(O)C(Oc1ccc(-c2ccccc2)cc1)n1cncn1 (stereo not drawn) [Bitertanol] | More than 10% | significant cytotoxicity | decreased levels of androgens | – | – | – | – | – | – | – | – | – | – | IC50 [1]: 20.5 µM; IC50 [3]: 62.7 µM; % FITCT4 bound to TTR ([3]; 0.1 uM): 93.4196%; % FITCT4 bound to TTR ([3]; 0.3 uM): 88.4453%; % FITCT4 bound to TTR ([3]; 1 uM): 84.7037%; % FITCT4 bound to TTR ([3]; 3 uM): 79.29%; % FITCT4 bound to TTR ([3]; 10 uM): 64.391%; % FITCT4 bound to TTR ([3]; 30 uM): 52.4704%; % FITCT4 bound to TTR ([3]; 100 uM): 49.6904%; IC10 competing with FITC-T4 for binding to TTR [3]: 0.22 µM; decrease in viability (VM7Luc4E2 cells; 100 μM): more than 10%
CC1COC(Cn2cncn2)(c2ccc(Oc3ccc(Cl)cc3)cc2Cl)O1 (stereo not drawn) [Difenoconazole] | – | – | no effect on androgen levels, but showed decreased levels of corticosteroids | 3 µM | 100.42% | 84.26% | 56.28% | 27.83% | 4.1 µM | 0.64 µM | more than 8 fold | – | – | IC50 [1]: 22 µM; cytotoxicity (GH3.TRE cells; 30 and 100 μM): More than 10%; cytotoxicity in the resazurine assay ([2]; 30 and 100 μM): significant cytotoxicity; IC50 [3]: 38.5 µM; % FITCT4 bound to TTR ([3]; 0.1 uM): 94.3698%; % FITCT4 bound to TTR ([3]; 0.3 uM): 86.9998%; % FITCT4 bound to TTR ([3]; 1 uM): 84.4625%; % FITCT4 bound to TTR ([3]; 3 uM): 79.4508%; % FITCT4 bound to TTR ([3]; 10 uM): 60.3391%; % FITCT4 bound to TTR ([3]; 30 uM): 47.2598%; % FITCT4 bound to TTR ([3]; 100 uM): 44.9874%; IC10 competing with FITC-T4 for binding to TTR [3]: 0.23 µM; decrease in viability (VM7Luc4E2 cells; 30 and 100 μM): more than 10%
Nc1nc(N)[nH]c(=O)n1 [Ammeline] | – | – | – | – | – | – | – | – | – | – | – | – | – | decrease in cell viability at highest exposure concentration (H295R cells): ≤ 10%
FC(F)C(F)(F)OCC(Cn1cncn1)c1ccc(Cl)cc1Cl (stereo not drawn) [Tetraconazole] | – | – | increased levels of progesterone and decreased levels of androgens, estrogens, and corticosteroids | 30 µM | – | – | – | – | – | – | – | More than 10% | up to 3.5 fold | –
NC(Cn1cncn1)C(=O)O (stereo not drawn) [Triazole alanine] | – | – | – | – | – | – | – | – | – | – | – | – | – | decrease in cell viability at highest exposure concentration (H295R cells): ≤ 10%
N#CC(CCc1ccc(Cl)cc1)(Cn1cncn1)c1ccccc1 (stereo not drawn) [Fenbuconazole] | – | significant cytotoxicity | decreased levels of androgens, estrogens, and corticosteroids | – | – | – | – | – | – | – | more than 8 fold | – | – | cytotoxicity (GH3.TRE cells; 30 and 100 μM): More than 10%; decrease in viability (VM7Luc4E2 cells; 100 μM): more than 10%
CC(C)(C)C(O)(CCc1ccc(Cl)cc1)Cn1cncn1 (stereo not drawn) [Tebuconazole] | More than 10% | significant cytotoxicity | increased levels of progesterone and decreased levels of androgens, estrogens, and corticosteroids | 30 µM | – | – | – | – | – | – | – | – | up to 3.5 fold | –
CCCC1COC(Cn2cncn2)(c2ccc(Cl)cc2Cl)O1 (stereo not drawn) [Propiconazole] | More than 10% | significant cytotoxicity | no effect on androgen levels, but showed decreased levels of corticosteroids | – | 96.03% | 99.85% | 100.91% | 76.92% | 20.1 µM | 6.1 µM | more than 8 fold | – | – | TR antagonism % max combined ([5]; 30 uM): 33.08%
CC(C1CC1)C(O)(Cn1cncn1)c1ccc(Cl)cc1 (stereo not drawn) [Cyproconazole] | – | – | increased levels of progesterone and decreased levels of androgens, estrogens, and corticosteroids | – | – | – | – | – | – | – | – | More than 10% | up to 3.5 fold | –
CC(C)(C)C(O)C(Oc1ccc(Cl)cc1)n1cncn1 (stereo not drawn) [Triadimenol] | – | – | decreased estrogen and corticosteroid levels | – | 102.48% | 98.41% | 105.58% | 76.69% | 21.3 µM | 6.3 µM | – | More than 10% | – | TR antagonism % max combined ([5]; 30 uM): 36.13%
